The source of these data is US10392404B2, “Compounds and compositions as kinase inhibitors” (NOVARTIS AG, priority 2014, dated 2019).

The target of one experiment is T1, b-Raf (V600E) (Homo sapiens, UniProt P15056, V600E).
T1 construct: made in house
Nature of the experiment: In vitro Raf activity determination (Alpha Screen, biotinylated kinase-dead MEK1 substrate), B-Raf. In kind it is biochemical. As to conditions: b-Raf (V600E) approximately 4 pM; ATP 10 μM; pre-incubation 60 minutes; reaction 3 hours at room temperature. A digest of the protocol: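 Activated b-Raf(V600E) (~4 pM) pre-incubated 60 min with compound and biotinylated kinase-dead (K97R) MEK1 (~10 nM), then reacted 3 h at room temperature with 10 μM ATP in 50 mM Tris pH 7.5, 15 mM MgCl2, 0.01% BSA, 1 mM DTT. Phospho-MEK detected by AlphaScreen; IC50 by non-linear regression.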

In another experiment the target is T2, C-RAF (Homo sapiens, UniProt P04049, Y340E/Y341E).
T2 construct: His tag (implied by nickel chromatography) (cleaved yes); StrepII tag (cleaved yes); made in house; host or cells: Sf9 insect cells (baculovirus), CRAF and h14-3-3 zeta co-expressed; MEK1 substrate from E. coli
T2 sequence (P04049 whole entry Y340E/Y341E): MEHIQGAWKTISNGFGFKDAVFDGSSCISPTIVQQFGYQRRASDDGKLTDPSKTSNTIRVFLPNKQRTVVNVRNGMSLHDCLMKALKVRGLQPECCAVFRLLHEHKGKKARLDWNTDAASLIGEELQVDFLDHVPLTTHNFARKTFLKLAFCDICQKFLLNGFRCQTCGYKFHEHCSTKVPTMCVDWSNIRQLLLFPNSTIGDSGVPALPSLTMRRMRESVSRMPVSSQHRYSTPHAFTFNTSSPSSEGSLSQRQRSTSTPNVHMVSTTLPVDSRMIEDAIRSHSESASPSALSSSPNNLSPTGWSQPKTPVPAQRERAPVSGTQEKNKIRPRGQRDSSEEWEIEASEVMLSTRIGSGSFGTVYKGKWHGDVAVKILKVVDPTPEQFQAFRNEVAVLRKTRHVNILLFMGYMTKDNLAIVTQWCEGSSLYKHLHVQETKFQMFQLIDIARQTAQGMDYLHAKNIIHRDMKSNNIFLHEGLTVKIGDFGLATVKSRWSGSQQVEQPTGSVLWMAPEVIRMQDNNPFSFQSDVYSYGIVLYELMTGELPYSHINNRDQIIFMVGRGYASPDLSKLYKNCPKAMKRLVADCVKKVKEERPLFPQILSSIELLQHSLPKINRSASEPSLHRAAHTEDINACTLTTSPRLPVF
T2 sequence (P63104 whole entry partner): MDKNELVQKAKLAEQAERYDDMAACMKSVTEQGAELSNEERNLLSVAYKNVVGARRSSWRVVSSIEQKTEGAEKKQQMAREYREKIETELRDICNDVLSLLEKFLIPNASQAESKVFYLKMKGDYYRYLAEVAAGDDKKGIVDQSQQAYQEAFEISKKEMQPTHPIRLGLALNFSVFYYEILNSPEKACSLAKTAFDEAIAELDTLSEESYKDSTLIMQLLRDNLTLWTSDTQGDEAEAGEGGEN
The experiment in a line: In vitro Raf activity determination (Alpha Screen, biotinylated kinase-dead MEK1 substrate), C-Raf. It counts as biochemical. As to conditions: c-Raf approximately 4 nM; ATP 1 μM; pre-incubation 60 minutes; reaction 1 hour at room temperature. A digest of the protocol: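 Full-length C-Raf carrying Y340E/Y341E, co-expressed with 14-3-3ζ in Sf9 cells, at approximately 4 nM, with approximately 10 nM biotinylated kinase-dead MEK1 (K97R) and 1 μM ATP, pH 7.5. Compound preincubated 60 min, reaction 1 hour at room temperature. Phospho-MEK read by AlphaScreen; IC50 by non-linear regression.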

T1 sequence (P15056 whole entry V600E): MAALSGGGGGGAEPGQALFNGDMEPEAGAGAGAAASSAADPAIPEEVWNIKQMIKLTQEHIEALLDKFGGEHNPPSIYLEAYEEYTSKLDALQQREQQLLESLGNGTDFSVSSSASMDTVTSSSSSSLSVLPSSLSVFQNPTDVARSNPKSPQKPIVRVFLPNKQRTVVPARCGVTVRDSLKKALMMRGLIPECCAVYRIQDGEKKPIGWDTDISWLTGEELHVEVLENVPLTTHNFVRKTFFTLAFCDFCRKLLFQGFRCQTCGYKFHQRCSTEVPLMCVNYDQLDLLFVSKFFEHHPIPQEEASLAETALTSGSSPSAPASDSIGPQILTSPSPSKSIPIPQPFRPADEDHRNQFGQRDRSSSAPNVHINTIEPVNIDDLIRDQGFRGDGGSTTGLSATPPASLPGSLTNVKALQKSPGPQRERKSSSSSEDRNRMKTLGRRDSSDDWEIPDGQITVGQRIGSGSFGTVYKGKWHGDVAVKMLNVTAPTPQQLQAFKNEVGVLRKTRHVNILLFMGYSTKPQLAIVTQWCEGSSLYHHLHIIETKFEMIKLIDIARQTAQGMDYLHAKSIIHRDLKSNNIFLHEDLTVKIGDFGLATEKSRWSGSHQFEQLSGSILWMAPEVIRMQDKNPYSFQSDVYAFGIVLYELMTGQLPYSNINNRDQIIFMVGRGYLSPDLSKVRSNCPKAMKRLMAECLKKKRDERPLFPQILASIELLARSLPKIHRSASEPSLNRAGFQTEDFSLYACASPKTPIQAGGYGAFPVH

By IC50 is commonly meant the concentration that gives 50% inhibition. Higher therefore signals weaker potency in that assay. Regarding `Cc1ncc(NC(=O)c2ccnc(C(F)F)c2)cc1-c1cnc(N2CC(C)(O)C2)c(C#N)c1` [Example 182, N-(5′-cyano-6′-(3-hydroxy-3-methylazetidin-1-yl)-2-methyl-[3,3′-bipyridin]-5-yl)-2-(difluoromethyl) isonicotinamide], the IC50 against b-Raf (V600E) is 58.8 nM; against C-RAF, 7.49 nM.

Take `CCn1cc(C(=O)Nc2ccc(C)c(-c3cnc(N(C)C)c(C#N)c3)c2)c(C)n1` [Example 251, N-(3-(5-cyano-6-(dimethylamino)pyridin-3-yl)-4-methylphenyl)-1-ethyl-3-methyl-1H-pyrazole-4-carboxamide]: the values for the IC50 on b-Raf (V600E) and on C-RAF were 59.7 nM and 7.28 nM, respectively.

Take `Cc1ccc(NC(=O)c2cccc(S(C)(=O)=O)c2)cc1-c1cnc(C2CCOCC2)c(C#N)c1` [Example 139, N-(3-(5-cyano-6-(tetrahydro-2H-pyran-4-yl)pyridin-3-yl)-4-methylphenyl)-3-(methylsulfonyl) benzamide]: the IC50 was 2.4 nM against b-Raf (V600E) and 0.377 nM on C-RAF.

For the compound `Cc1ccc(NC(=O)c2ccnc(C(C)(C)O)c2)cc1-c1cnc(N2CCOCC2)c(C#N)c1` [Example 165, N-(3-(5-cyano-6-morpholinopyridin-3-yl)-4-methylphenyl)-2-(2-hydroxypropan-2-yl)isonicotinamide], the IC50 against b-Raf (V600E) turned out to be 1.24 nM; against C-RAF, 0.356 nM.

`Cc1ccc(NC(=O)c2ccnc(C(C)(C)C#N)c2)cc1-c1cncc(C#N)c1` [Example 35, 2-(2-cyanopropan-2-yl)-N-(3-(5-cyanopyridin-3-yl)-4-methylphenyl) isonicotinamide]: the IC50 against b-Raf (V600E) stood at 11.1 nM; against C-RAF it was 1.95 nM.

On to `Cc1ccc(NC(=O)c2cccc(C(F)(F)F)c2)cc1-c1cncc(C#N)c1` [Example 34, N-(3-(5-cyanopyridin-3-yl)-4-methylphenyl)-3-(trifluoromethyl) benzamide], for which the values for the IC50 at b-Raf (V600E) and against C-RAF were 3.9 nM and 0.616 nM, respectively.

As for `COc1ncc(-c2cc(NC(=O)c3cccc(C(F)(F)F)c3)ccc2C)cc1C#N` [Example 37, N-(3-(5-cyano-6-methoxypyridin-3-yl)-4-methylphenyl)-3-(trifluoromethyl) benzamide], the IC50 against b-Raf (V600E) is 1.3 nM; against C-RAF, 0.16 nM.

For `Cc1ncc(NC(=O)c2cc(C(C)(C)O)ccn2)cc1-c1cnc(N2CC(C)(O)C2)c(C#N)c1` [Example 235, N-(5′-cyano-6′-(3-hydroxy-3-methylazetidin-1-yl)-2-methyl-[3,3′-bipyridin]-5-yl)-4-(2-hydroxypropan-2-yl)picolinamide], the 50% inhibitory concentration (IC50) against b-Raf (V600E) was 27.9 nM; against C-RAF, 5.8 nM.

With `Cc1ncc(NC(=O)c2ccnc(C(C)(C)C#N)c2)cc1-c1cnc(OC2COC2)c(C#N)c1` [Example 94, N-(5′-cyano-2-methyl-6′-(oxetan-3-yloxy)-[3,3′-bipyridin]-5-yl)-2-(2-cyanopropan-2-yl)isonicotinamide], the IC50 on b-Raf (V600E) was 23.6 nM; against C-RAF, 5.98 nM.

Regarding `Cc1ncc(NC(=O)c2ccnc(C(F)F)c2)cc1-c1cnc(N2CCOCC2)c(C#N)c1` [Example 136, N-(5′-cyano-2-methyl-6′-morpholino-[3,3′-bipyridin]-5-yl)-2-(difluoromethyl) isonicotinamide], the IC50 at b-Raf (V600E) was 1.16 nM; on C-RAF, 0.153 nM.

On to `Cc1ncc(NC(=O)c2ccnc(C(F)(F)F)c2)cc1-c1cnc(N2CC(C)(O)C2)c(C#N)c1` [Example 180, N-(5′-cyano-6′-(3-hydroxy-3-methylazetidin-1-yl)-2-methyl-[3,3′-bipyridin]-5-yl)-2-(trifluoromethyl) isonicotinamide], for which the IC50 came out at 8.46 nM at b-Raf (V600E) and 1.31 nM on C-RAF.

Regarding `Cc1ccc(NC(=O)c2ccnc(C(F)(F)F)c2)cc1-c1cnc(S(C)(=O)=O)c(C#N)c1` [Example 46, N-(3-(5-cyano-6-(methylsulfonyl)pyridin-3-yl)-4-methylphenyl)-2-(trifluoromethyl) isonicotinamide], the IC50 at b-Raf (V600E) came to 10.5 nM; against C-RAF it was 2.11 nM.

Regarding `Cc1ncc(NC(=O)c2cccc(C(F)(F)F)c2)cc1-c1cnc(N2CCS(=O)(=O)CC2)c(C#N)c1` [Example 85, N-(5′-cyano-6′-(1,1-dioxidothiomorpho-lino)-2-methyl-[3,3′-bipyridin]-5-yl)-3-(trifluoromethyl) benzamide], the IC50 at b-Raf (V600E) stood at 1.33 nM; against C-RAF, 0.227 nM.

Turning to `Cc1ncc(NC(=O)c2ccnc(C(C)(C)C#N)c2)cc1-c1cnc(N2CCC2)c(C#N)c1` [Example 76, N-(6′-(azetidin-1-yl)-5′-cyano-2-methyl-[3,3′-bipyridin]-5-yl)-2-(2-cyanopropan-2-yl)isonicotinamide], the IC50 at b-Raf (V600E) came to 9.01 nM; against C-RAF, 1.53 nM.

As to `Cc1ncc(NC(=O)c2cc(C3CC3)nn2C)cc1-c1cnc(N(C)C)c(C#N)c1` [Example 266, N-(5′-cyano-6′-(dimethylamino)-2-methyl-[3,3′-bipyridin]-5-yl)-3-cyclopropyl-1-methyl-1H-pyrazole-5-carboxamide], the IC50 against b-Raf (V600E) was 404 nM; against C-RAF, 30.8 nM.

Take `Cc1ccc(NC(=O)c2ccnc(C3CC3)c2)cc1-c1cnc(N2CCNCC2)c(C#N)c1` [Example 158, N-(3-(5-cyano-6-(piperazin-1-yl)pyridin-3-yl)-4-methylphenyl)-2-cyclopropyl isonicotinamide]: the IC50 at b-Raf (V600E) stood at 1.09 nM; on C-RAF, 0.199 nM.

With `Cc1ccc(NC(=O)c2cc(C(C)C)on2)cc1-c1cnc(N(C)C)c(C#N)c1` [Example 258, N-(3-(5-cyano-6-(dimethylamino)pyridin-3-yl)-4-methylphenyl)-5-isopropylisoxazole-3-carboxamide], the IC50 was 1.18 nM against b-Raf (V600E) and 0.158 nM at C-RAF.

Take `Cc1ccc(NC(=O)c2ccnc(C(C)C)c2)cc1-c1cnc(N2CCNCC2)c(C#N)c1` [Example 150, N-(3-(5-cyano-6-(piperazin-1-yl)pyridin-3-yl)-4-methylphenyl)-2-isopropyl-isonicotinamide]: the 50% inhibitory concentration (IC50) against b-Raf (V600E) stood at 0.591 nM; against C-RAF it was 0.158 nM.

Regarding `COCCNc1ncc(-c2cc(NC(=O)c3ccnc(C4(C#N)CC4)c3)ccc2C)cc1C#N` [Example 177, N-(3-(5-cyano-6-((2-methoxyethyl)amino)pyridin-3-yl)-4-methylphenyl)-2-(1-cyanocyclopropyl) isonicotinamide], the results for the IC50 against b-Raf (V600E) and at C-RAF were 0.94 nM and 0.169 nM, respectively.

In the case of `Cc1ncc(NC(=O)c2cccc(C(F)(F)F)c2)cc1-c1cnc(-c2ccncc2)c(C#N)c1` [Example 106, N-(5′-cyano-2-methyl-[3,3′:6′,4″- terpyridin]-5-yl)-3-(trifluoromethyl) benzamide], the values for the IC50 against b-Raf (V600E) and at C-RAF were 2.19 nM and 0.391 nM, respectively.

`Cc1ccc(NC(=O)c2ccnc(C(C)(C)C#N)c2)cc1-c1cnc(N(C)C)c(C#N)c1` [Example 16, N-(3-(5-cyano-6-(dimethylamino)pyridin-3-yl)-4-methylphenyl)-2-(2-cyanopropan-2-yl)isonicotinamide]: the IC50 came out at 1.53 nM against b-Raf (V600E) and 0.216 nM against C-RAF.

Turning to `Cc1ccc(NC(=O)c2ccnc(C3CC3)c2)cc1-c1cnc(N2CCOCC2)c(C#N)c1` [Example 155, N-(3-(5-cyano-6-morpholinopyridin-3-yl)-4-methylphenyl)-2-cyclopropyl-isonicotinamide], the values for the IC50 at b-Raf (V600E) and at C-RAF were 0.263 nM and 0.0395 nM, respectively.

In the case of `Cc1ncc(NC(=O)c2ccnc(C(C)(C)C#N)c2)cc1-c1cnc(N2CCOC[C@H]2C)c(C#N)c1` [Example 79, (R)-N-(5′-cyano-2-methyl-6′-(3-methylmorpholino)-[3,3′-bipyridin]-5-yl)-2-(2-cyanopropan-2-yl)isonicotinamide], the IC50 at b-Raf (V600E) worked out at 4.34 nM; against C-RAF, 1.51 nM.

Regarding `Cc1ccc(NC(=O)c2ccnc(C(F)(F)F)c2)cc1-c1cc(C#N)c(N)nc1C` [Example 42, N-(3-(6-amino-5-cyano-2-methylpyridin-3-yl)-4-methylphenyl)-2-(trifluoromethyl) isonicotinamide], the results for the IC50 at b-Raf (V600E) and on C-RAF were 10.2 nM and 0.672 nM, respectively.

`COCCNc1ncc(-c2cc(NC(=O)c3ccnc(C(F)F)c3)ccc2C)cc1C#N` [Example 178, N-(3-(5-cyano-6-((2-methoxyethyl)amino)pyridin-3-yl)-4-methylphenyl)-2-(difluoromethyl) isonicotinamide]: the half-inhibitory concentration (IC50) worked out at 1.51 nM against b-Raf (V600E) and 0.192 nM against C-RAF.

As to `Cc1ccc(NC(=O)c2cccc(S(C)(=O)=O)c2)cc1-c1cnc(N2CC(C)(O)C2)c(C#N)c1` [Example 218, N-(3-(5-cyano-6-(3-hydroxy-3-methylazetidin-1-yl)pyridin-3-yl)-4-methylphenyl)-3-(methylsulfonyl) benzamide], the IC50 was 3.58 nM against b-Raf (V600E) and 0.617 nM at C-RAF.

Take `Cc1ncc(NC(=O)c2ccnc(C(C)(C)C#N)c2)cc1-c1cnc(N2CC(O)C2)c(C#N)c1` [Example 65, N-(5′-cyano-6′-(3-hydroxyazetidin-1-yl)-2-methyl-[3,3′-bipyridin]-5-yl)-2-(2-cyanopropan-2-yl)isonicotinamide]: the IC50 against b-Raf (V600E) is 14.5 nM; at C-RAF, 2.7 nM.

Regarding `Cc1ccc(NC(=O)c2ccnc(C3(C#N)CC3)c2)cc1-c1cnc(N2CCOCC2)c(C#N)c1` [Example 147, N-(3-(5-cyano-6-morpholinopyridin-3-yl)-4-methylphenyl)-2-(1-cyanocyclopropyl) isonicotinamide], the results for the IC50 at b-Raf (V600E) and against C-RAF were 0.503 nM and 0.116 nM, respectively.
